Test results published in a melting point compilation (Tetko et al.; mined from patent text by program, amines drawn as free bases though some values may be those of a salt).

| Structure (SMILES) | melting point [°C] |
| --- | --- |
| CCCCCOC(=O)n1c(N)nc(C#N)c1C#N | 166 to 169 |
| O=C1CCC(N2Cc3c(OCc4ccc(CN5CCNCC5)cc4)cccc3C2=O)C(=O)N1 (centres undefined) | 196 to 198 |
| COc1cc(C(=O)N2CC2C#N)cc(OC)c1OC (centres undefined) | 86 to 89 |
| NS(=O)(=O)C(F)(F)c1nnc(C(F)(F)S(N)(=O)=O)o1 | 171 to 172 |
| N#CC1Cc2cc3cc[nH]c3cc21 (centres undefined) | 126 to 128 |
| CCC1(C2CCN(c3ncnc4cc(OC)c(OC)cc34)CC2)CO1 (centres undefined) | 138 to 139 |
| CCN(CC)CC1CCn2c(nc3ccccc32)S1 (centres undefined) | 93 to 94 |
| CC(C)C(=O)N(C(=O)OC(C)(C)C)C(CC(N)C(=O)OCc1ccccc1)C(N)=O (centres undefined) | 112 to 113 |
| O=C(CBr)CCCCCCN1C(=O)c2ccccc2C1=O | 83 to 86 |
| NP(N)(=O)NC(=O)c1ccc2ccccc2c1 | > 400 |
| O=C(COC(=O)C(O)Cc1ccccc1)Oc1ccccc1 (centres undefined) | 98 to 99 |
| CNC(=O)NCCN1CCC(Nc2nc3ccccc3n2Cc2ccc(F)cc2)CC1 | 231 |
| Cc1cc2c(-c3ccccc3)c(COS(C)(=O)=O)n(C)c(=O)c2cc1C | 150 to 151 |
| COc1ccc(C(=O)c2ccc(=O)[nH]c2C)cc1 | 228 to 230 |
| COC(=O)c1c(-c2ccccc2Cl)c2cc(C)c(C)cc2[nH]c1=O | 288 to 289 |
| O=C(O)c1ccc(C#CC=Cc2ccccc2-c2ccc(Cl)cc2)cc1 | 135 |
| O=S(=O)(c1ccccc1)c1ccc(Br)cc1 | 95 to 99 |
| Nc1ccc(Oc2ccc(Oc3ccc(N)cc3)c(P(=O)(c3ccccc3)c3ccccc3)c2)cc1 | 205 to 208 |
| CC(C)(C)C(=O)Nc1ccccc1CC1NCCc2ccccc21 (centres undefined) | 168 |
| Cn1cc(-c2nc3c(N[C@H]4[C@@H](C(N)=O)[C@@H]5C=C[C@H]4C5)ccnc3[nH]2)cn1 | 236 to 238 |
| CCCSc1c2c(=O)n(C)c(=O)n(CC(C)C)c2nn1Cc1cccc2ccccc12 | 105 |

| Structure (SMILES) | melting point [°C] |
| --- | --- |
| CN(C[C@H]1CC[C@H](NC(=O)OCc2ccccc2)CC1)C1CCOCC1 | 81 to 84 |
| CCCc1nnc(/C=C/c2cc(OCc3ccc(OCc4nc(-c5ccco5)oc4C)c(OC)c3)nn2-c2ccccc2)o1 | 107 to 108 |
| CC(=O)C(CSC(=S)N(C)C)=C(C)O | 70 to 72 |
| O=C1NCC(C(=O)O)S1 (centres undefined) | 148 to 150 |
| CC(C)n1nc(-c2sc(NC(=O)CNCc3cccnc3)nc2-c2ccccc2)ccc1=O | 156 to 158 |
| CCCC1Sc2c(cc(OC)c(Cl)c2Cl)C1O (centres undefined) | 119 to 120 |
| O=c1[nH]c2ccccc2c(=O)c(Cc2ccccc2)c1O | 199 to 200 |
| COc1ccc(CCNC(=O)N(C)O)cc1OC | 103 to 104 |
| CCOc1cccc(COc2ccc3c(c2)C=C(C(=O)O)CCS3(=O)=O)c1 | 150 to 154 |
| CCOC(=O)/C=C/c1c2c(nn1-c1ccc(F)cc1)C(Cc1ccccc1)CCC2 (centres undefined) | 117 to 118 |
| Cc1cccc2sc(S)nc12 | 161 to 173 |
| Nc1cc([N+](=O)[O-])c2c(c1N)CCCC2 | 181 to 182 |
| OCCNCc1nnc2n1-c1ccc(Cl)cc1C(c1ccccc1)=NC2 | 162 to 164 |
| CCNC(C)c1cc(S(N)(=O)=O)sc1S(C)(=O)=O (centres undefined) | 164 to 166 |
| COc1cnccc1C#N | 66 to 67 |
| CN(C)C(=O)c1ncn2c1CC(=O)N(c1ccccc1)c1cc(Cl)ccc1-2 | 255 to 257 |
| Cc1cc(C)cc(NC(=O)NC2CC2)c1 | 169 |
| O=C(NC[C@H]1CN(c2ccc(N3CCN(C(=O)OCc4ccccc4)CC3)c(F)c2)C(=O)O1)C(F)F | 147 |
| COc1ccccc1N1CCN(CCCC2(c3ccc(F)cc3)OCc3cc(C#N)ccc32)CC1 (centres undefined) | 147 to 149 |
| Cc1cc(=O)n2cccc(OCc3ccc(Cl)cc3Cl)c2n1 | 180 to 182 |
| N#Cc1ccc([C@H]2CC[C@H](CO)CC2)cc1 | 108 |

| Structure (SMILES) | melting point [°C] |
| --- | --- |
| CC1(N2C(=O)c3cccc(NC(=O)c4cccc(Cl)c4)c3C2=O)CCC(=O)NC1=O (centres undefined) | 283 to 285 |
| CC(C)CCC1(c2ccccc2)CC(O)=C(Sc2ccccc2C(C)C)C(=O)O1 (centres undefined) | 64 to 66 |
| COc1cc(N2CCOCC2)ccc1Nc1ncc2cc3ccccc3n2n1 | 169 to 173 |
| CC(=O)Nc1ccc(CC(=O)N[C@H]2C[C@H](C(=O)O)Nc3cc(Cl)cc(Cl)c32)cc1 (relative stereo) | 279 to 281 |
| COc1ccc(C(=O)NCCSSCCNC(=O)c2ccc(OC)cc2)cc1 | 136 to 138 |
| CC(=O)c1cccc(NC(=O)C=C(C)Cl)c1 | 152 |
| CCOC1C(NC(=O)C(F)(F)F)CC(OC)OC1C (centres undefined) | 183 to 185 |
| O=C(O)c1cccc(CNC2CC3CC2C2CCCC32)c1 (centres undefined) | 258 to 261 |
| CC(=O)N1CCn2c(c(C3=C(c4cn(C)c5ccccc45)C(=O)NC3=O)c3ccccc32)C1 | 308 to 310 |
| O=CNc1ccc(-c2ccc(C(=O)N3CCN4CCC3CC4)o2)cc1 | 236 |
| CC(=Nc1ccc2c(c1)C(=O)c1ccc(N=C(C)N3CCCCC3)cc1C2=O)N1CCCCC1 | 233 to 235 |
| CC(=O)OCC1OC(n2cc(C(Cl)=CI)c(=O)[nH]c2=O)C(OC(C)=O)C1OC(C)=O (centres undefined) | 85 to 87 |
| Clc1ccccc1N=Nc1ncc[nH]1 | 173 to 177 |
| C1=C(c2c[nH]c3ccccc23)CCN(CC2COc3ccc4[nH]ccc4c3O2)C1 (centres undefined) | 126 |
| O=C(NCCCCC(NS(=O)(=O)c1ccc2oc3ccccc3c2c1)C(=O)O)OCc1ccccc1 (centres undefined) | 133 to 135 |
| CC(=O)NC(CO)CCc1ccc(Sc2cccc(OCc3ccccc3)c2)cc1Cl (centres undefined) | 78 to 81 |
| S=c1oc2ccccc2o1 | 151 to 153 |
| CN(C)CCc1cn(Cc2ccccc2)c2ccc(Br)cc12 | 49 to 50 |
| COC(=O)c1[nH]c2cc(C)c(C)cc2c1-c1ccc(O)cc1 | 247 to 248 |
| CC1=NN(C)C(=O)C1(Cl)C(=O)c1ccccc1 (centres undefined) | 70.5 to 72 |
| CC1CCCC(C(=O)c2[nH]c3cc(Cl)ccc3c2N)C1 (centres undefined) | 140 to 142 |

Next, values leading:

| melting point [°C] | Structure (SMILES) |
| --- | --- |
| 61 to 65 | COC(=O)[C@H](Cc1cccc(O)c1)NC(=O)OC(C)(C)C |
| 137 to 148 | CS(=O)(=O)Nc1cccc(-c2ccc(S(=O)(=O)n3ccc(C=CC(=O)NO)c3)cc2)c1 |
| 231 | CCCOc1ccccc1-c1nc2nc(OC)ncc2c(=O)[nH]1 |
| 103 to 104 | COC(=O)c1ccc(Cc2cccc3ccc(C=O)cc23)c(OC)c1 |
| 221 to 222 | C=CCNc1nc(NCC(F)(F)F)nc2ccc([N+](=O)[O-])cc12 |
| 166 to 167 | Cn1nc(N=Cc2ccncc2)nc1NCCCOC1=CCC=C(CN2CCCC2)C1 |
| 176 to 177 | Cc1ccc(Cl)cc1NC(=S)Nc1c(C)nn(C)c1C |
| 149 to 150 | O=c1c2c(oc3ccc(Br)cc13)CCCC2 |
| 258 to 259 | CCn1cc(C(=O)O)c(=O)cc1-c1ccc(N(C)C)cc1 |
| 103 to 104 | Cc1ccc(C)c(NC(=O)OC(C)(C)C)c1 |
| 202 to 203 | CC(=O)N1CCN(c2nc(N)ccc2[N+](=O)[O-])CC1 |
| 141 to 143 | CCOC(=O)c1cn(-c2nccs2)c2nc(Cl)cc(NCc3ccccc3)c2c1=O |
| 161 | Nc1cnc2c(F)c(F)ccc2c1 |
| 88 to 89 | C#CC(O)(c1ccccc1)c1ccc([N+](=O)[O-])cc1 (centres undefined) |
| 143 to 145 | CCOc1cc2ncc(C#N)c(Nc3ccc4cn[nH]c4c3)c2cc1OCC |
| 35 to 36 | COCCOc1ccc([N+](=O)[O-])cc1I |
| 136 to 137 | O=C1c2cccc([N+](=O)[O-])c2C(=O)N1c1cccc2ccc(O)cc12 |
| 182 to 183 | CC(C)(C)OC(=O)Nc1ccc(I)cc1NC(=O)CC(=O)c1cccc(C#N)c1 |
| 267 to 269 | N#Cc1cnc2cc3cc(O)ccc3cc2c1Nc1ccc(Cl)cc1Cl |
| 143 to 145 | O=[N+]([O-])c1cc(SC(F)(F)F)[nH]c1-c1ccc(Cl)cc1 |
| 141 to 142 | CSc1ccc(NC2=C(C#N)CSC2)c([N+](=O)[O-])c1 |

| melting point [°C] | Structure (SMILES) |
| --- | --- |
| 249 | Cc1cc(-c2ncn3c(C(F)(F)F)cc(-c4ccc(Br)cc4)nc23)ccn1 |
| 89.5 to 91.5 | COc1ccc(CON(CCCBr)S(=O)(=O)c2ccc(C)cc2)cc1 |
| 160 to 162 | CCc1cc(C#N)sc1-c1ccc2c(c1)C(C)(C)OC(=O)N2 |
| 133 to 135 | OC(c1ccccn1)c1cc(C(F)(F)F)nc2c(C(F)(F)F)cccc12 (centres undefined) |
| 144 to 146 | CC(C)(Oc1ccc(C(=O)c2ccc(Cl)cc2)cc1)C(=O)NCC(=O)O |
| 107 to 110 | O=[N+]([O-])c1ccc2[nH]cc(CCCO)c2c1 |
| > 250 | O=c1[nH]c2ccc(O)cc2n1CCN1CCN(c2cccc(C(F)(F)F)c2)CC1 |
| 312 to 314 | O=C1CCCC(=O)N1CCCn1c2ccccc2c2nc3ccccc3nc21 |
| 142 to 144 | CCN(CC)c1ccc2c(C)c(C#Cc3ccccc3)c(=O)oc2c1 |
| 218 to 220 | N#CCc1ccccc1-c1ccc(C(=O)O)cc1 |
| 178 to 181 | O=C(O)C1CN(c2ccc(-c3noc(CCl)n3)cc2)C(=O)O1 (centres undefined) |
| 106 to 107 | CCOC(=O)C(NC(=O)CC(=O)C=Cc1ccccc1[N+](=O)[O-])C(C)C (centres undefined) |
| 189 to 192 | CSc1ccc(-c2oc3ccccc3c(=O)c2-c2ccc(C(F)(F)F)cc2)cc1 |
| 91 to 93 | CCCCCCCCCCNC(=O)C=C(c1ccccc1)c1ccc([N+](=O)[O-])cc1 |
| 237 to 240 | O=[N+]([O-])c1cc(O)ccc1/C=C/c1ccc(O)cc1 |
| 102 | CCN(CC)C(=O)COc1nc(-c2ccccc2)cc2ccccc12 |
| 82 to 83 | COC(=O)NNCc1ccc(Cl)cc1Cl |
| 209 to 210 | C=Cc1cccc(C(=O)NC(Nc2c(Nc3cccnc3)c(=O)c2=O)C(C)(C)C)c1 (centres undefined) |
| > 250 | O=C1Nc2cc(C(F)(F)F)cnc2C1C(=O)OCc1ccccc1 (centres undefined) |
| 110 to 120 | Cc1nc2c(N)nc3ccccc3c2n1CCCCCNC(=O)c1ccccc1 |
